Assay results reported in ChEMBL document CHEMBL1139019, “Tricyclic azepine derivatives: pyrimido[4,5-b]-1,4-benzoxazepines as a novel class of epidermal growth factor receptor kinase inhibitors” (Bioorg Med Chem Lett, 2006).

How the values were obtained:
[1] = molecular target: T1, Epidermal growth factor receptor (Homo sapiens, UniProt P00533)
[2] = molecular target: T1, Epidermal growth factor receptor; assay: Inhibition of EGFR autophosphorylation in DiFi cells

T1 sequence (P00533 whole entry): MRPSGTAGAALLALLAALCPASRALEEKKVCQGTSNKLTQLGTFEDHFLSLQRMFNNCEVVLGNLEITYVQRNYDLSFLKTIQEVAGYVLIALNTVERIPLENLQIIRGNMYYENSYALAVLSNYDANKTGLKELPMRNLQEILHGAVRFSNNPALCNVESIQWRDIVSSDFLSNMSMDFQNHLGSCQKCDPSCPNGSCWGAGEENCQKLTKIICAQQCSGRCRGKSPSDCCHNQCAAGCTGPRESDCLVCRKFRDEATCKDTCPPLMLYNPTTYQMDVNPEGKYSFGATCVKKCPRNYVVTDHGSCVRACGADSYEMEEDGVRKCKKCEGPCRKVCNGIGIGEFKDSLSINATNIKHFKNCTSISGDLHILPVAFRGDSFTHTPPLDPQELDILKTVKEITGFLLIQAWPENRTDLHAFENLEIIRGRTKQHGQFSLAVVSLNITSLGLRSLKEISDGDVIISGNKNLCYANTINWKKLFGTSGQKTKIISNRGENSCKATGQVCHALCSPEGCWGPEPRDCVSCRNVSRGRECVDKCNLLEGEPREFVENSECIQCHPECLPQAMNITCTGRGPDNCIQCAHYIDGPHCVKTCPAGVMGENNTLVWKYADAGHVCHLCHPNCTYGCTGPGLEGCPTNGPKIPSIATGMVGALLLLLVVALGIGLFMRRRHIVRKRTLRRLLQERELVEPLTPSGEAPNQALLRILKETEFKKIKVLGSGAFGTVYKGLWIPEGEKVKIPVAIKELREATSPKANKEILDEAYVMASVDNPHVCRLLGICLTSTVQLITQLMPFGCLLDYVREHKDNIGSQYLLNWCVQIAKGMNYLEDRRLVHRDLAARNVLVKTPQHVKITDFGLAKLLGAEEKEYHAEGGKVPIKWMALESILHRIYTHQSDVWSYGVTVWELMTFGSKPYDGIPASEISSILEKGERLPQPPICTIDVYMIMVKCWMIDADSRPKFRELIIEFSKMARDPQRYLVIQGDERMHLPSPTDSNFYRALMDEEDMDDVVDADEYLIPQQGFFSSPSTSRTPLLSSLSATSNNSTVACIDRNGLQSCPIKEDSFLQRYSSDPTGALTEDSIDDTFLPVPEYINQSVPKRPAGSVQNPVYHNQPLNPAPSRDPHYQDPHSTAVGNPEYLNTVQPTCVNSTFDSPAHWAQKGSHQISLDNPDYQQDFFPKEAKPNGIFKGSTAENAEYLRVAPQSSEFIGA

Row | IC50 [1] [µM] | IC50 [2] [µM] | SMILES
1 | 1 | 7.2 | Brc1cccc(Nc2ncnc3c2NCc2cc(Br)ccc2O3)c1
2 | 3.1 | 1 | COc1ccc2c(c1)CNc1c(Nc3cccc(Br)c3)ncnc1O2
3 | > 10 | 9.8 | COc1ccc2c(c1)CNc1c(Nc3cccc(-c4ccccc4)c3)ncnc1O2
4 | > 10 |  | Fc1ccc2c(c1)CNc1c(Nc3ccc(Cl)cc3)ncnc1O2
5 | 7 |  | Fc1ccc2c(c1)CNc1c(Nc3ccccc3)ncnc1O2
6 | 3.4 | > 30 | Clc1ccc2c(c1)CNc1c(Nc3cccc(Br)c3)ncnc1O2
7 | 3.7 | 9.1 | Nc1ccc2c(c1)CNc1c(Nc3ccc(F)c(Cl)c3)ncnc1O2
8 | 0.9 | 2.4 | COc1ccc2c(c1)CNc1c(Nc3ccc(F)c(Cl)c3)ncnc1O2
9 | 1 | 7.2 | Fc1ccc2c(c1)CNc1c(Nc3ccc(F)c(Cl)c3)ncnc1O2
10 | 5.8 |  | COc1ccc2c(c1)CNc1c(Nc3ccc(Cl)cc3)ncnc1O2
11 | 3 | 1.9 | COc1ccc2c(c1)Oc1ncnc(Nc3cccc(Br)c3)c1NC2
12 | 6.3 | > 30 | COc1cc(OC)c2c(c1)Oc1ncnc(Nc3cccc(Br)c3)c1NC2

Second part, the molecule before the results:

Row | SMILES | IC50 [1] [µM] | IC50 [2] [µM]
13 | COc1cccc2c1CNc1c(Nc3cccc(Br)c3)ncnc1O2 | > 10 | 
14 | Fc1ccc(Nc2ncnc3c2NCc2cc(Cl)ccc2O3)cc1Cl | 1 | 4.3
15 | O=C(O)c1ccc2c(c1)CNc1c(Nc3cccc(Br)c3)ncnc1O2 | 1 | > 30
16 | Nc1ccc2c(c1)CNc1c(Nc3cccc(Br)c3)ncnc1O2 | 1.7 | > 30
17 | CS(=O)(=O)Nc1ccc2c(c1)CNc1c(Nc3ccc(F)c(Cl)c3)ncnc1O2 | > 10 | 
18 | Fc1ccc(Nc2ncnc3c2NCc2cc(Br)ccc2O3)cc1Cl | 2 | 8.4
19 | Fc1ccc2c(c1)CNc1c(NCc3ccccc3)ncnc1O2 | 8.9 | > 30
20 | C=CC(=O)Nc1ccc2c(c1)CNc1c(Nc3ccc(F)c(Cl)c3)ncnc1O2 | 4.9 | 8.9
21 | COc1ccc2c(c1)CNc1c(NCc3ccccc3)ncnc1O2 | 2 | 8.5
22 | FC(F)(F)Oc1ccc2c(c1)CNc1c(Nc3cccc(Br)c3)ncnc1O2 | > 10 | 
23 | COc1cc2c(cc1OC)Oc1ncnc(Nc3ccc(F)c(Cl)c3)c1NC2 | 1.2 | 0.69
24 | COc1ccc2c(c1)Oc1ncnc(Nc3ccc(F)c(Cl)c3)c1NC2 | 1 | 8.9
25 | Fc1ccc2c(c1)CNc1c(Nc3cccc(-c4ccccc4)c3)ncnc1O2 | 2 | 9.9
26 | O=C(O)c1ccc2c(c1)CNc1c(Nc3ccc(F)c(Cl)c3)ncnc1O2 | 4.4 | > 30
27 | Brc1ccc2c(c1)CNc1c(Nc3ccccc3)ncnc1O2 | 10 | 
28 | C=CC(=O)Nc1ccc2c(c1)CNc1c(Nc3cccc(Br)c3)ncnc1O2 | 5.7 | 5.4
29 | COc1cc2c(cc1OC)Oc1ncnc(Nc3cccc(Br)c3)c1NC2 | 0.34 | 0.47
30 | Fc1ccc2c(c1)CNc1c(Nc3cccc(Br)c3)ncnc1O2 | 1.5 | 6.9
31 | CS(=O)(=O)Nc1ccc2c(c1)CNc1c(Nc3cccc(Br)c3)ncnc1O2 | 4.1 | 7
32 | COc1ccc2c(c1)CNc1c(Nc3ccccc3)ncnc1O2 | 7.5 | 
33 | Fc1ccc(Nc2ncnc3c2NCc2ccccc2O3)cc1Cl | 1.1 | 2.7
